Read-outs that look alike come from different tables or passages of the source.
Assays:
[1] = tested on: phosphotidylinositol phosphate phosphatase; details: cited from earlier work
[2] = tested on: IM-9 target cells
Method: In further studies, NCC were treated with different concentrations of protein phosphatase inhibitors for two hours and labeled IM-9 target cells were added for a four-hour microcytotoxicity assay (Table 8). […] To determine if the activating effects of the protein phosphatase inhibitors were reversible, NCC were treated for 90 minutes with NaF and vanadate and then the inhibitors were removed prior to addition of the labeled target cells.

[3] = tested on: NCC from stressed fish (lysis of IM-9 target cells); details: for Percent Specific Release (stressed fish): 100:1, control 0.9
Method: (§1) A ^51 Cr release assay was used to determine cytotoxicity. Target cells at 1-2×10^6 cells/ml were labeled with 100 μCi of sodium chromate (Amersham, Arlington Heights, Ill.). NCC effector cells were treated as previously described [Evans et al. (1988) supra], centrifuged (500 g), and resuspended in media and added at different E:T ratios to the labeled target cells in round-bottomed 96-well microtiter plates. This mixture was incubated (25° C.) for 4-6 hours and 100 μl of each supernatant was removed to determine radioactivity (Beckman Biogamma II Counter; Beckman Instruments, Irvine, Calif.). The results are expressed as either percentage specific release (SR)=[(test release--spontaneous release)/(total release--spontaneous release)]×100; percent inhibition=[(percentage control SR--percentage test SR)/percentage control SR]×100; and percentage increase=(percentage test SR--percentage control SR)/percentage control SR.
A common observation in fish exposed to stress, e.g., toxicants, drastic temperature changes, handling, etc., is the temporary loss of NCC activity.

[4] = tested on: CRC cells; experiment: Lytic activity of CRC cells (rat leukemic NK cells); assay type: cell-based, rat (F344)
From the text: The present invention relates to the relevance of protein phosphatase inhibitors to the protection of other species and other types of natural killer cells. For example, the CRC cells (tissue cultured cells obtained from peripheral blood of leukemic F344 rats) are perhaps more interesting (e.g., another model to study the effects of vanadate on altering immunosuppressed NK function) because these are in vitro maintained rat leukemic NK cells which have spontaneously lost cytotoxicity against YAC-1 target cells. […] It is possible that the discovery of this activity of protein phosphatase inhibitors may have widespread importance for studies of mechanisms of signaling in all vertebrates. Additionally, these inhibitors may have clinical importance in circumstances of immunosuppression, immunodeficiency and other conditions of altered immune activity.

[5] = tested on: human prostate gland phosphotyrosyl protein phosphatase; details: cited from earlier work
[6] = tested on: NCC (lysis of IM-9 target cells); details: for Percentage of control (NCC cytotoxic activity): 120 minutes; for effect of removal of inhibitor on NCC activation (words): 90 minutes treatment, washed, E:T 40:1
Method: FIG. 4. Individual and combined effects of phosphatase inhibitors on NCC cytotoxicity, NCC (7×10^5 cells) were incubated with either media (.diamond.), vanadate (Δ) (5 mM). NaF (.smallcircle.) (20 mM), or both vanadate and NaF (.quadrature.) for the indicated time periods before addition to labeled IM-9 target cells.
FIG. 5. Effects of removal of Na3 VO4 on NCC activation. NCC were harvested, incubated for three hours, washed, counted and added to duplicate tubes containing either media alone or media containing 2.5, 5 and 10 mM vanadate. Following a 90 minutes incubation time, the cells were either washed and resuspended in media (closed circles) or added directly (open circles) to wells containing ^51 chromium labeled IM-9 target cells (E:T ratio 40:1).
FIG. 6. Effects of removal of NaF on NCC activation. NCC were harvested, incubated for three hours in media, washed, counted and added to duplicate tubes containing media alone or in the presence of 5, 10 and 20 mM NaF. Following a 90 minutes treatment time, NCC were either washed (closed circles) or added directly (open circles) to wells containing labeled IM-9 target cells (E:t ratio 40:1).
FIG. 7. Effects of Na3 VO4 on NCC with different levels of cytotoxicity. NCC were harvested from anterior kidneys of fish from three different sources. The cells were incubated in media for three hours, washed, counted and added to test tubes containing either media alone or media with 2.5, 5 and 10 mM vanadate. Following a two hours incubation time, the effectors were added to wells containing labeled IM-9 cells at a 40:1 E:T ratio.
FIG. 8. Effects of NaF on NCC with different levels of cytotoxicity. NCC were harvested from anterior kidneys of fish from three different sources. The cells were incubated in media for three hours, washed, counted and added to media or media with 5, 10 and 20 mM NaF. Following a two-hour incubation, NCC were added to wells containing ^51 chromium labeled IM-9 target cells for a final E:T ratio of 40:1.
as §1
NCC were obtained as previously described [Graves et al. (1984) supra]; Evans et al. (1984) supra]. […] NCC were then washed and resuspended at 20×10^6 cells/ml, and 35 μl aliquots were added to test tubes containing 315 μl media only (media control) or media containing the indicated treatments. After 2 hr incubation, the cells were mixed with ^51 Cr-labeled IM-9 target cells and incubated for 4-6 hours ([…]). Supernatants were harvested and cytotoxicity levels were calculated as previously described.
Membrane phosphorylation is maintained through a delicate equilibrium between cellular kinase and phosphatase activities.
In further studies, NCC were treated with different concentrations of protein phosphatase inhibitors for two hours and labeled IM-9 target cells were added for a four-hour microcytotoxicity assay (Table 8).

[7] = tested on: protein phosphatase; details: cited from earlier work
[8] = tested on: calcineurin; details: cited from earlier work
[9] = tested on: NCC; details: relatively high concentrations

[Cl-].[Li+] [Lithium chloride, lithium chloride]
phosphotidylinositol phosphate phosphatase activity [1]: specifically inhibited
toxicity to labeled IM-9 targets [2]: not toxic
effect on cytotoxicity, stressed fish [3]: no effects on cytotoxicity

[F-].[Na+] [Sodium fluoride, sodium fluoride]
increase in the lytic activity of CRC cells [4]: 3 -fold
human prostate gland phosphotyrosyl protein phosphatase [5]: fluoride, but not vanadate inhibited human prostate gland phosphotyrosyl protein phosphatase
cytotoxicity in presence of inhibitor, normal NCC [6]: significant increased cytotoxicity
effect on NCC cytotoxicity [6]: activated the cytotoxicity of NCC
Percentage of control (NCC cytotoxic activity) ([6]; 5 mM, E:T 25:1): 210.3%
Percentage of control (NCC cytotoxic activity) ([6]; 5 mM, E:T 50:1): 136.9%
Percentage of control (NCC cytotoxic activity) ([6]; 5 mM, E:T 100:1): 123.2%
Percent Specific Release ([6]; 5 mM, E:T 10, media 39): 48%
Percent Specific Release ([6]; 5 mM, E:T 25, media 4): 9%
Percent Specific Release ([6]; 5 mM, E:T 50, media 21): 29%
Percentage of control (NCC cytotoxic activity) ([6]; 10 mM, E:T 25:1): 333.3%
Percentage of control (NCC cytotoxic activity) ([6]; 10 mM, E:T 50:1): 183.9%
Percentage of control (NCC cytotoxic activity) ([6]; 10 mM, E:T 100:1): 153.7%
Percent Specific Release ([6]; 10 mM, E:T 10, media 39): 60%
Percent Specific Release ([6]; 10 mM, E:T 25, media 4): 14%
Percent Specific Release ([6]; 10 mM, E:T 50, media 21): 39%
Percentage of control (NCC cytotoxic activity) ([6]; 20 mM, E:T 25:1): 635.3%
Percentage of control (NCC cytotoxic activity) ([6]; 20 mM, E:T 100:1): 157.3%
Percent Specific Release ([6]; 20 mM, E:T 10, media 39): 61%
Percent Specific Release ([6]; 20 mM, E:T 25, media 4): 28%
Percent Specific Release ([6]; 20 mM, E:T 50, media 21): 49%
effect of removal of inhibitor on NCC activation (words) ([6]; listed as NaF): almost completely obliterated activation
effect of removal of inhibitor on NCC activation (words) ([6]; listed as fluoride): almost completely obliterated NCC activation
effect of removal of inhibitor on NCC activation (words) ([6]; listed as sodium fluoride): lost
protein phosphatase activity [7]: vanadate but not fluoride inhibited protein phosphatase activity
calcineurin-mediated dephosphorylation [8]: fluoride, but not vanadate inhibited
toxicity to labeled IM-9 targets ([2]; 20 mM): not toxic
toxicity to NCC [9]: not toxic to NCC
Percent Specific Release (stressed fish) ([3]; NaF 5 mM): 1.4%
Percent Specific Release (stressed fish) ([3]; NaF 10 mM): 4.4%
Percent Specific Release (stressed fish) ([3]; NaF 20 mM): 22.0%
